System: HSP 70
Assay: Production of stress protein HSP 70 (RNAm by RT-PCR, band intensity vs β-actine) in cutaneous cell cultures
Format: cell-based, human
Conditions: tested at 1.5 g/l
Description: 1st test with thermal treatment:
At J0, cutaneous cells, fibroblasts and/or keratinocytes are seeded.
At J4, 3% of active principle was added and after an incubation of 30 minutes thermal treatment is carried out for 1 hour at 39° C.
The positive specimen is treated for 1 hour at 44° C.
The total RNA is extracted. The RNA is reverse-transcripted and the complementary DNA is analyzed by using complementary oligonucleotides of a sequence coding the genes and proteins studied.
The RNAm of β-actine is analyzed for each experimental condition.
By image analysis, using for example the system sold under the name BIO-PROFIL, the band intensities are determined.
2nd test without thermal treatment:
At J3, 3% of active principle is added and left to incubate for 24 hours at 37° C.
At J4, at the end of this incubation, the cells are recovered.
The total RNA is extracted. The RNA is reverse-transcripted and the complementary DNA is analyzed by using complementary oligonucleotides of a sequence coding the genes and proteins used. The RNAm of p-actine is analyzed for each experimental condition.
Similarly to the above, by image analysis, the intensities of the bands are determined. […]
The results of the thermal treatments of the standard are indicated in the table in FIG. 1, taking as 100% the quantity of RNAm of HSP 70 after incubation at 37° C. of a standard specimen

Structure (SMILES) | effect on the synthesis of HSP 70 on fibroblasts, result in words
OCCc1ccc(O)c(O)c1 [Dihydroxytyrosol] | very active
C/C=C1/[C@H](O[C@@H]2O[C@H](CO)[C@@H](O)[C@H](O)[C@H]2O)OC=C(C(=O)OC)[C@H]1CC(=O)OCCc1ccc(O)c(O)c1 [Oleuropeine] | very active
